Laboratory results from patent publication US20090312408A1, “ISOFLAVAN AND ISOFLAVENE COMPOUNDS AND THEIR USE AS ANGIOGENESIS INHIBITORS” (priority 2006, published 2009).

How the values were obtained:
BBCE cells = assay: bFGF-induced endothelial cell proliferation, analysis by cell counting; type: cell-based; details: 120 h, 2.5 ng/ml bFGF, cell counting on day 5 or 6, read-out: half-maximal concentration, inhibition of bFGF-induced proliferation of endothelial cells
Method: BBCE cells were seeded (day 0) in 12-well tissue culture plates at a density of 1250 cells/cm^2 (5000 cells/ml/well) and the following day (day 1), wells received 5 μl of the compound dilutions to be tested and 2.5 ng/ml bFGF. This treatment was repeated after two days (day 3). On day 5 or 6, cells in duplicate wells were trypsinized and counted using a Coulter particle counter. Ten dilutions were tested for each compound.
One of the main angiogenic endothelial cell responses is proliferation, in which the effect of F47 was examined. The effect of F47 on bFGF-induced endothelial cell proliferation was studied using cell counting, the results being shown in FIG. 1. […] F47 inhibited both bFGF- and VEGF-induced proliferation of endothelial cells with half-maximal concentrations of 3 and <1 μM, respectively.

HUVEC = assay: VEGF-induced endothelial cell proliferation, analysis by Ki67 immunostaining; type: cell-based; details: Homo sapiens, HUVECs, VEGF 50 ng/ml, 6 hr, read-out: half-maximal concentration, inhibition of VEGF-induced proliferation of endothelial cells
Method: (§1) Human endothelial cells from umbilical vein (HUVEC) were plated on dishes pre-coated with rat collagen type I (Becton Dickinson Biosciences) and cultured in M199 medium supplemented with 20% fetal calf serum, FCS, 50 ng/ml endothelial cell growth supplement (ECGS, Sigma), heparin […] (Sigma) and 1% penicillin-streptomycin. All media and sera for cell culture were purchased from Invitrogen and were endotoxin-free. F47 was tested for endotoxin content using the QCL1000 kit from BioWhittaker, Inc. Stock solutions of F47 were resuspended in DMSO/ethanol, 1/1 by volume, and added directly to the culture medium. Cells not receiving F47 were incubated in the corresponding volume of DMSO/ethanol.
HUVECs (3×10^4) were grown on cover slips and serum starved in a medium containing 5% FCS for 12 hr. Cells were induced with VEGF (50 ng/ml) in the presence or absence of F47 (10 μM) for 6 hr, fixed in 3.7% paraformaldehyde and processed for indirect immunofluorescence using an anti-Ki67 antibody. Cells were counterstained with Hoechst 33342. […] Ki67 antigen is only expressed in active phases of the cell cycle, but not in G0 phase and the percentage of the Ki67-positive cells represents the proliferating population.
One of the main angiogenic endothelial cell responses is proliferation, in which the effect of F47 was examined. […]

HUVECs = assay: Endothelial cell survival/apoptosis, FACS analysis (sub-G1 DNA content); type: cell-based, Human; details: serum-starved HUVECs (5% FCS), F47 10 μM, 15 hr
Method: as §1
For analysis by flow cytometry, HUVECs were serum starved for 15 hr in medium containing 5% FCS and treated with VEGF (50 ng/ml) in the presence or absence of F47 (10 μM for the same period of time). At the end of the incubation time, floating and adherent cells were collected in ice-cold PBS, stained with propidium iodine using the CycleTEST PLUS DNA Reagent kit (Becton Dickinson Biosciences) and processed for flow cytometric analysis using a Becton Dickinson Fluorescence Activated Cell Scanner (FACS). The percentage of cells with a sub-G1 DNA content was considered as the cell population that had undergone apoptosis. […]

[1] = system: Bovine Microvascular Endothelial (BME) cells; assay: In vitro angiogenesis assay (tube formation in 3D collagen gel); type: cell-based; details: 50 μM, pictures after 7 days
Method: Collagen was solubilized from rat tail tendons essentially as described by Strom and Michalopoulos, Methods Enzymol 82: 544-555, 1982 and Dharmsathaphorn and Madara, Methods Enzymol. 192: 354-389, 1990. In order to prepare collagen gel, 8 volumes of a cold collagen solution from rat tail tendons (approximately 1.5 mg/ml) were quickly mixed with 1 volume of 10× minimal essential medium (MEM) without bicarbonate and 1 volume of sodium bicarbonate (11.76 mg/ml) on ice. F47 or DMSO was added at final concentration of 50 μM and the mixture was quickly dispensed into 2.00 cm^2-tissue culture wells and it was polymerized at 37° C. for 10 min (Montesano et al., J. Cell Biol. 97: 1648-1652, 1983). Bovine Microvascular Endothelial (BME) cells were seeded onto collagen gel in 500 μl of D-MEM supplemented with 10% Donkey Calf Serum (DCS), 1% glutamine and 1% penicillin-streptomycin, containing F47 (50 μM) or DMSO (control sample). The cells were left at 37° C. for 90-120 min to be attached. Following that, the medium was removed and a second layer of 200 μl of collagen mixture, containing F47 (50 μM) or DMSO, was added on the top. Again, collagen was allowed to polymerize at 37° C. for 10 min. Finally, 500 μl of medium, containing either F47 (50 μM) or DMSO, was added on the top. The ultimate layer of the medium was changed every 2 days renewing thus F47 or DMSO. Pictures were taken after 7 days. […]

A-431 tumors = assay: A-431 murine tumor xenograft model; type: in vivo, BALB/c nude mice
Method: To assess the in vivo antiangiogenic/antitumor activity of F47, female immunodeficient mice (5-8 week-old BALB/c nude mice, Charles River, Milan, Italy) were s.c. inoculated in the right flank with 10^7 A-431 cells in a volume of 50 μl (Morbidelli et al., Clinic Cancer Res, 2003; 9(14): 5358-69). After 9 days, when tumors reached a volume of 170 mm^3, animals were randomly assigned to 2 different experimental protocols (9-10 mice per group). Peritumor treatment with F47 (5 μg/day/mice) or vehicle started. The local peritumor treatment was performed at the dose of 5 μg/50 μl/mouse/day. The vehicle containing the same concentrations of solvents (1% ethanol+1% DMSO) was used as control. Daily treatment was performed for 10 consecutive days. Serial caliper measurements of perpendicular diameters were used to calculate tumor volume using the following formula: (shortest diameter×longest diameter×thickness of the tumor in mm). Data are reported as tumor volume in mm^3. Experiments have been performed in accordance with the guidelines of the European Economic Community for animal care and welfare (EEC Law No. 86/609) and National Ethical Committee. Animals were observed daily for signs of cytotoxicity and were sacrified by CO2 asphyxiation.
At day 10 animals were sacrificed and each tumor was immediately frozen in liquid nitrogen. Seven-μm-thick cryostat sections were stained with hematoxylin and eosin and adjacent sections were used for immunohistochemical staining with the anti-ED-B monoclonal antibody after fixation in absolute cold acetone.
FIG. 5 refers to the antitumor activity of F47 evaluated in nude mice inoculated with A-431 cells and treated after the onset of tumor growth (day 9 from inoculation, >150 mm^3 tumor volume). Peri-tumor treatment with F47 (5 μg/mice/day) or vehicle continued for 10 days. Data are reported as tumor volume in mm^3 (means±SEM of […]).

In the case of `COc1cc2c(cc1O)OCC(c1ccc(O)cc1)C2` (centres unmarked) [F47, 7,4′-dihydroxy-6-methoxy-isoflavan], the IC50 (BBCE cells) is reported as 3000 nM, the IC50 (HUVEC) is reported as < 1000 nM and the “effect on VEGF-induced endothelial cell survival” value (HUVECs; VEGF 50 ng/ml) is reported as “did not inhibit”. For the same compound, the “level of apoptosis of serum-deprived HUVECs (toxic or apoptotic effects of the compound itself)” value (HUVECs; no VEGF) was “did not further increase”, the “in vitro angiogenesis (tube formation) in 3D collagen cultures” value [1] was “strongly inhibited” and the survival of mice (A-431 tumors; day 8, peritumor 5 μg/day/mice) was 78%. For the same compound, the “presence of tumor vasculature (anti-ED-B antibody staining of B-fibronectin)” value (A-431 tumors; day 10, peritumor 5 μg/day, tumor sections) was “absent” and the “tumors smaller than in control mice (tumor volume)” value (A-431 tumors; peritumor 5 μg/day/mice, P<0.01 vs vehicle group at day 6 and 8, 4 animals/group) was “approximately 50%”.
